Reference: ChEMBL document CHEMBL1142476, “Inhibition of Candida albicans isocitrate lyase activity by sesterterpene sulfates from the tropical sponge Dysidea sp” (Bioorg Med Chem Lett, 2008)
In brackets after ≈: the same amount, converted by molar mass.

How the values were obtained:
[1] = test system: Bacillus subtilis; experiment: Antibacterial activity against Bacillus subtilis ATCC 6633; format: functional
[2] = test system: Staphylococcus aureus; experiment: Antibacterial activity against Staphylococcus aureus ATCC 6538; format: functional
[3] = test system: Proteus vulgaris; experiment: Antibacterial activity against Proteus vulgaris ATCC 3851; format: functional
[4] = target: Isocitrate lyase (Candida albicans, UniProt Q9P8Q7); experiment: Inhibition of candida albicans isocitrate lyase
[5] = test system: Candida albicans; experiment: Antifungal activity against candida albicans ATCC 10231; format: functional, organism-based
[6] = test system: Salmonella typhimurium; experiment: Antibacterial activity against Salmonella Typhimurium ATCC 14028; format: functional, Salmonella enterica subsp. enterica serovar Typhimurium; settings: Salmonella enterica
[7] = test system: Micrococcus luteus; experiment: Antibacterial activity against Micrococcus luteus IFC12708; format: functional
[8] = test system: Escherichia coli; experiment: Antibacterial activity against Escherichia coli ATCC 11775; format: functional

Isocitrate lyase, sequence (Q9P8Q7 whole entry): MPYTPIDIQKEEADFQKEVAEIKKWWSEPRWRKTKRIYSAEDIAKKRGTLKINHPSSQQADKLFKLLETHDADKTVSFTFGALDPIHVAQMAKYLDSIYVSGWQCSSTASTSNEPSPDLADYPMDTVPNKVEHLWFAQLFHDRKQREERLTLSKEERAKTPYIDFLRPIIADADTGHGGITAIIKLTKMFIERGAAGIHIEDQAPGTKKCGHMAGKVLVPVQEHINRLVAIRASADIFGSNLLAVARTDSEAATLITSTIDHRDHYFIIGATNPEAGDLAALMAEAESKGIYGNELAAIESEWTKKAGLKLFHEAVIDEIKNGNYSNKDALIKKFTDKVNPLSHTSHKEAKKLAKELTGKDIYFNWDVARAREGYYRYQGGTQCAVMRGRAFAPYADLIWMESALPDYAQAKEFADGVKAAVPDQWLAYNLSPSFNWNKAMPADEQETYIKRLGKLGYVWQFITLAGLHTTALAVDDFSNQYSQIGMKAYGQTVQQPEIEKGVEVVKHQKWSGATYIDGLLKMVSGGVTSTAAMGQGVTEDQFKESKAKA

Row | Compound | MIC [1] [mg/L] | MIC [2] [mg/L] | MIC [3] [mg/L] | IC50 [4] [µM] | IC50 [5] [µM] | MIC [6] [mg/L] | MIC [7] [mg/L] | MIC [8] [mg/L]
1 | CC1=CC[C@H]2C(C)(C)CCC[C@]2(C)[C@H]1C[C@@H](OS(=O)(=O)[O-])[C@H](C)CCC/C(C)=C/Cc1cc(O)ccc1O.[Na+] [HALISULFATE 1] | 1.56 | 25 | 6.25 | 70.2 | 131 | 50 | 50 | > 100
2 | CC1=CC[C@H]2C(C)(C)CCC[C@]2(C)[C@H]1C/C=C(\C)CCC/C(C)=C/Cc1cc(O)ccc1O | 3.25 (≈ 7.21 µM) | 100 (≈ 222 µM) | 6.25 (≈ 13.9 µM) | 76.8 | 222 | 25 (≈ 55.5 µM) | 25 (≈ 55.5 µM) | > 100
3 | CC1=CC[C@H]2C(C)(C)CCC[C@]2(C)[C@H]1C[C@@H](OS(=O)(=O)O)[C@H](C)CCC/C(C)=C/Cc1cc(O)ccc1O.CN(C)C(=N)N | 6.25 | 50 | 12.5 | 158 | 158 | 50 | > 100 | > 100
4 | C=C1CC[C@H]2C(C)(C)CCC[C@]2(C)[C@H]1C[C@@H](OS(=O)(=O)[O-])[C@H](C)CCC/C(C)=C/Cc1cc(O)ccc1O.[Na+] | 1.56 | 25 | 6.25 | 71 | 131 | 50 | 50 | > 100
5 | CC1=CCC[C@@H](C)[C@]1(C)CC/C(C)=C/CCC(CCCc1ccoc1)COS(=O)(=O)O.CN(C)C(=N)N (stereo not given in full) | 6.25 | > 100 | 25 | 186 | 186 | > 100 | > 100 | > 100
6 | C[C@@H]1[C@H](O)[C@@H](C)/C=C/C=C/C=C/C=C/C=C/C=C/C=C/[C@H](O[C@@H]2O[C@H](C)[C@@H](O)[C@H](N)[C@@H]2O)C[C@@H]2O[C@](O)(C[C@@H](O)C[C@@H](O)[C@H](O)CC[C@@H](O)C[C@@H](O)CC(=O)O[C@H]1C)C[C@H](O)[C@H]2C(=O)O [AMPHOTERICIN B] |  |  |  |  | 1.7 |  |  | 
7 | CC1(C)S[C@@H]2[C@H](NC(=O)[C@H](N)c3ccccc3)C(=O)N2[C@H]1C(=O)O [AMPICILLIN] | 1.56 (≈ 4.46 µM) | 3.12 (≈ 8.93 µM) | 1.56 (≈ 4.46 µM) |  |  | 1.56 (≈ 4.46 µM) | 1.56 (≈ 4.46 µM) | 6.25 (≈ 17.9 µM)
8 | C=C1CCC[C@@H]2[C@@](C)(CC[C@H](CCCc3ccoc3)COS(=O)(=O)O)[C@H](C)CC[C@]12C.CN(C)C(=N)N | 12.5 | 50 | 6.25 | 31.3 | 186 | 25 | 25 | > 100
9 | O=C(O)CC[N+](=O)[O-] |  |  |  | 50.7 | 845 |  |  | 
10 | CN(C)C(=N)N.C[C@@H]1CCC2=C(CCCC2(C)C)[C@@]1(C)CC[C@H](CCCc1ccoc1)COS(=O)(=O)O | 6.25 | 50 | 12.5 | 33.8 | 186 | > 100 | 50 | > 100
